In a melting point compilation (Tetko et al.; mined from patent text by program, amines drawn as free bases though some values may be those of a salt):

| SMILES | melting point [°C] |
| --- | --- |
| Cc1cccc(CO)c1CNc1cc(C(=O)N(C)C)cc2c1nc(C)n2C | 197 to 198 |
| CC(=O)Oc1cccc2sc(-c3ccc(C)cc3)nc12 | 110 to 113 |
| Cc1oc(C=Cc2cccc(Cl)c2)nc1CCl | 86 to 87 |
| CN(C)C(=O)COc1ccc2c(c1)C[C@@H](NC[C@@H](O)c1ccc(OCc3ccccc3)cc1)CC2 | 103 to 106 |
| CCOC(=O)c1nc(Br)n2c1c(=O)n(C)c1cc(C(F)(F)F)ccc12 | 205 to 207 |
| CC[C@H](Cn1ncnn1)n1cnc2cc3c(=O)n([C@H](C)Cn4ncnn4)nnc3cc2c1=O | 80 to 82 |
| Cc1c(CC2CCc3c(c4ccccc4n3C)C2=O)ncn1C(c1ccccc1)(c1ccccc1)c1ccccc1 (stereo not given) | 193 to 195 |
| OCCc1ccc(OCc2ccccc2)cc1 | 85 |
| Oc1nc(C2CC2)ncc1Br | 200 |
| COC(=O)c1ccc(-c2nc(O)c(C)s2)cc1 | 219 to 220 |
| NS(=O)(=O)c1cccc(C(O)C(F)(F)F)c1 (stereo not given) | 130 to 132 |
| Nc1cn(-c2cccnc2)nc1C(F)(F)F | 112 to 115 |
| CC(C)(C)OC(=O)CN(C(=O)CNC(=O)c1cc2ccccc2[nH]1)c1ccccc1 | 203 |
| CC(=O)c1c(Cl)c(Cl)c([N+](=O)[O-])c2c1OCCO2 | 181 to 182 |
| O=S(=O)(Nc1ncc(Br)nc1OCc1cnccn1)c1cccc(Cl)c1Cl | 207 to 209 |
| O=C(c1ccc2nonc2c1)N1CC2CC1CO2 (stereo not given) | 102 to 104 |
| CC1(C)OC(=O)C(Oc2cc(F)cc(F)c2)=C1c1ccc(S(C)(=O)=O)cc1 | 159 to 161 |
| Cn1c(C(F)(F)F)cc(=O)n(-c2c(F)cc(Cl)c3c2OCCC3)c1=O | 141 to 145 |
| COc1ccc(-c2ccc(C(=O)Nc3ccc4nc(CN5CCCC5)ccc4c3)cc2)cc1 | 197 to 199 |
| COc1ccc(-c2nc(Sc3ccc(C(C)(C)C)cc3)n(C3CCCCO3)c2-c2ccc(OC)cc2)cc1 (stereo not given) | 162 to 164 |
| COc1ccc(C=C2CCCN2Cc2ccccc2)cc1OC | 105 |
| Cc1nc(-c2ccc(C(F)(F)F)cc2)sc1CN(C)c1ccc(OCC(=O)O)c(C(F)(F)F)c1 | 180 to 181 |
| Cc1nn(CC2CCCC2)c2nc(-c3ccncc3)nc(N)c12 | 177 to 178 |
| CC(C)C(NC(=O)OCc1ccncc1)C(=O)NC(Cc1ccccc1)C(O)C(Cc1ccccc1)NC(=O)C(NC(=O)OCc1ccncc1)C(C)C (stereo not given) | 158 to 159 |

| SMILES | melting point [°C] |
| --- | --- |
| C=CCC1C(=O)CCCC1=O | 125 to 127 |
| CN(C)C(=O)Nc1ccc(OCCCC(=O)c2ccccc2)c(Cl)c1 | 129 to 130 |
| CC(=O)Nc1c(C)c(C)c2c(c1N(C)C)CC(C)(C)O2 | 186 |
| COc1cccc([C@H]2O[C@H](CC(=O)N[C@@H](C)C(=O)O)C(=O)N(CC(C)(C)CO)c3ccc(Cl)cc32)c1OC | 133 to 135 |
| CN(C)CC1CCc2cc(OCc3ccc(NC(=O)c4cc5ccccc5s4)cc3)ccc2C1 (stereo not given) | 165 to 169 |
| O=S1(=O)c2cccc3cccc(c23)N1CCN1CCC(=Cc2cc3cc(F)ccc3[nH]2)CC1 | 160 |
| OCCCCC(F)(F)C(F)(F)CCO | 52 to 55 |
| Nc1nc2cc(C(=O)c3ccccc3)ccc2n1CCC(=O)O | 325 to 330 |
| CSc1c(C2=C(c3cn(C)c4ccccc34)C(=O)NC2=O)c2ccccc2n1C | 281 to 283 |
| CSCC(C)NC(=O)c1c(I)cccc1C(=O)Nc1ccc(C2(c3ccc(Cl)cc3)CC2(F)F)cc1C (stereo not given) | 229 to 232 |
| CCOc1nsnc1O | 104 to 106 |
| Cc1noc(NS(=O)(=O)c2ccccc2-c2ccc(-c3ncco3)cc2CNC=O)c1C | 105 to 109 |
| CCOC(=O)c1cc2c(O)nncc2nc1NC(C)CC (stereo not given) | 184 to 185 |
| CCOC(=O)Cc1ccc(NC(=O)C(COS(C)(=O)=O)NS(=O)(=O)c2ccc(Cl)cc2)cc1 (racemic) | 142 to 143 |
| CCC1NC(c2cc(Cl)nc(Cl)c2)=NC(=O)C1C(=O)OC (stereo not given) | 188 to 189 |
| O=C(O)C1Cc2c(c(Cl)cc3c(-c4cccs4)noc23)O1 (stereo not given) | 249 to 251 |
| CCOC(=O)c1cnc2nc(OCC)ccc2c1Cl | 72 to 75 |
| CC1(C)C=Cc2cc(C#N)c(N)cc2O1 | 137 to 138 |
| CCOCCOC(=O)Nc1c(C#N)cnn1-c1ccc(Cl)c(Cl)c1Cl | 122 to 124 |
| COC(=O)C=C(C)c1ccc(CC(C)(C)NCC(O)c2ccccc2)cc1 (stereo not given) | 98 to 103 |
| CC(C)(C)C#Cc1cc([N+](=O)[O-])ccc1C(=O)O | 170 to 173 |
| N#CSCOc1cc(Cl)c(Cl)cc1Cl | 103 to 105 |
| Clc1ccccc1-c1cnccn1 | 38 to 39 |
| O=[N+]([O-])c1cc2c(cc1O)CCCC2 | 88 to 89 |

| SMILES | melting point [°C] |
| --- | --- |
| COc1ccc2c(c1)CCC1CCN(CO)C(=O)C(CC(C)N(C)C(C)C)=C21 (stereo not given) | 158 to 161 |
| CSc1nccc(CC(=O)c2ccc(F)cc2)n1 | 212 to 214 |
| CCOc1nn(CCOc2ccc3ccccc3c2CC(=O)O)cc1C(=O)NCc1ccc(Cl)cc1Cl | 199 to 201 |
| FC(F)(F)Oc1ccc(Nc2cc(N3CCOCC3)nc(-c3ccccc3)n2)cc1 | 144 to 146 |
| O=C(Nc1ccc(-c2cnc(-c3ccc(NC(=O)C4CCCCC4)cc3)[nH]2)cc1)c1cccnc1 | 315 to 317 |
| NC(=O)C(c1ccccc1)(c1ccccc1)C1CCN(C2CCCCC2)C1 (stereo not given) | 119 to 121 |
| O=C(c1ccc(F)cc1)C1CCN(CCCN2c3ccccc3-c3ccccc3S2(=O)=O)CC1 | 114 |
| COC1CC(n2cc(C=CBr)c(=O)[nH]c2=O)OC1CCl (stereo not given) | 145 |
| CC1CN(C2=NC(=O)C(=Cc3cccc(-c4cc(F)c(O)c(C56CC7CC(CC(C7)C5)C6)c4)c3)S2)CC(C)O1 (stereo not given) | 262 to 264 |
| C=CCc1c(OC)ccc(-c2cc(-c3ccc(Cl)cc3)n(-c3ccc(OC)cc3)n2)c1OC | 44 to 46 |
| O=C=Nc1ccc(Cl)cc1[N+](=O)[O-] | 54 to 56 |
| O=C1c2ccccc2C(=O)N1Cc1cc(=O)c(OC(c2ccccc2)c2ccccc2)cn1OC(c1ccccc1)c1ccccc1 | 145 to 147 |
| CCCCN(C(=O)C1CC1)c1nnc(C)s1 | 82 to 84 |
| COc1cc(Br)ccc1OC(=O)c1ccccc1 | 73 to 75 |
| CC(=O)c1ccc2c(c1)Cc1cccnc1O2 | 142 to 144 |
| NC(=O)c1cc(-c2ccnc(Nc3cccc(OC(F)(F)C(F)F)c3)n2)ccn1 | 224 to 225 |
| COc1ccccc1[Si](C)(C)COc1cc(C(C)(C)C)c(O)c(C(C)(C)C)c1 | 89 to 90 |
| N#Cc1c(N2CCC[C@@H]2CO)[nH]c2cccnc12 | 207 to 209 |
| O=C(NCC12CC3CC(CC(C3)C1)C2)c1cc(I)cnc1Cl | 163 to 164 |
| CC1=C(C(=O)OC(C)C)C(c2cccc([N+](=O)[O-])c2)N(C(=O)NOCc2ccccc2)C(=O)N1 (stereo not given) | 166 to 167 |
| CC(Oc1ncn(-c2ccc(Br)cc2)n1)C(N)=O (stereo not given) | 179 to 181 |
| CCOC(=O)Cc1ccnc2c(N)cccc12 | 71 to 77 |
